Results reported in US20260226493A1, “HERBICIDE RESISTANT PLANTS” (SYNGENTA CROP PROTECTION AG, priority 2023, published 2026).

Key:
[1] = test system: D4555 (Escherichia coli BioA) containing tobacco plants; assay: Visual herbicide damage score on transgenic tobacco D4555 (pCMP MTP EcBioA); format: in vivo; conditions: 600 gai/ha, replicate clones A, B, C of events 8480, 8526
Text: In order to determine if the overexpressed gene detailed in Example 3 confers resistance to BIO3-BIO1 inhibiting compounds when expressed in plants, GM tobacco lines were produced and tested with BIO3-BIO1 inhibiting compounds. Transgenic tobacco plants expressing the Escherichia coli BioA gene with (SEQ ID NO:203) and without a mitochondrial signal peptide (SEQ ID NO: 202).
Populations of transgenic tobacco comprising 20-30 transgenic events per plant transformation constructs were generated as described in Example 1. These lines were clonally propagated and 1 clone per event was sprayed with 600 g ai/ha compound L or A+0.2% Genapol X080 with a spray volume of 200 L/Ha (“g ai/ha” refers to grams of active compound per hectare).
[…] A score of 0 indicates no visible damage or stunting whereas a score of 100 indicates a complete death of the plant. 20 transgenic events (i.e. individual transgenic plants) from each GM tobacco line were transplanted to soil 1 week prior to spraying with BIO3-BIO1 inhibiting compounds. WT tobacco was included as a control.
• D4555 (Escherichia coli BioA) containing tobacco plants; 04602 (Pantoea ananatis BioA) containing tobacco plants; 04603 (Stenotrophomonas maltophilia BioA) containing tobacco plants; 04609 (Chroococcidiopsis sp. CCMEE 29 BioA) containing tobacco plants; 04611 (Bacillus subtilis BioA) containing tobacco plants; 04606 (Streptomyces viridochromogenes BioA) containing tobacco plants; 04607 (Pedobacter hartonius BioA) containing tobacco plants; 04608 (Chitinophaga filiformis BioA) containing tobacco plants; and 04610 (Tenacibaculum adriaticum BioA) containing tobacco plants, are shown in the “TABLES” section below in Tables 16 to 24 respectively.

[2] = molecular target: T1, Arabidopsis thaliana BIO3-BIO1 (BioDA) mutants (Arabidopsis thaliana, UniProt B0F481, DEL508-508); assay: BIO3-BIO1 mutant enzyme activity in the presence of herbicide, percentage inhibition (fluorometric DAPA assay); format: biochemical; conditions: read-out: percentage inhibition
T1 construct: with the predicted N-terminal mitochondrial transit peptide removed; 6xHis-tag (N); thrombin cleavage site (N); made in house; host or cells: E. coli BL21 (DE3) bioA
T1 sequence (B0F481 other isoform, or with tags, fused parts or gaps DEL508-508): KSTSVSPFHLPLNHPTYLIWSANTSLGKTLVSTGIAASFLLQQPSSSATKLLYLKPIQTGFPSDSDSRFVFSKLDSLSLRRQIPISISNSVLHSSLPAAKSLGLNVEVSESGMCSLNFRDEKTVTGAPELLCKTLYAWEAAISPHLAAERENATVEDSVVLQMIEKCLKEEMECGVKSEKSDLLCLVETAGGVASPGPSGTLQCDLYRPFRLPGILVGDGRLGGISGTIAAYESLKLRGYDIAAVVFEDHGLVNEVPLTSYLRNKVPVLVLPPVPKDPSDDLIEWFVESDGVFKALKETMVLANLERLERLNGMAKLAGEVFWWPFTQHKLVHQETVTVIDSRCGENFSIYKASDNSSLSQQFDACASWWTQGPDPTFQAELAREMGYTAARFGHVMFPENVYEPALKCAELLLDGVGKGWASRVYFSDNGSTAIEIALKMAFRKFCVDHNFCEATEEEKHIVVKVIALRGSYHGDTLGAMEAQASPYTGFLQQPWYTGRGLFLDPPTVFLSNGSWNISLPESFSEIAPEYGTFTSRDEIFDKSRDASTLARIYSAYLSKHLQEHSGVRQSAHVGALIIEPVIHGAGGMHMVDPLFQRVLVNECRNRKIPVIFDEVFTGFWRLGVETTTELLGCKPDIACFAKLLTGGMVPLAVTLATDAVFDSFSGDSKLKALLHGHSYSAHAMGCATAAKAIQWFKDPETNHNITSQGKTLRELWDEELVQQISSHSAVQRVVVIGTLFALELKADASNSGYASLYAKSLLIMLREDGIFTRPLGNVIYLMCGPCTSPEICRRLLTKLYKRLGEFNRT
How it was run: (§1)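 Percentage inhibition compares activity at one of three herbicide concentrations against DMSO, from o-phthalaldehyde-derivatised DAPA fluorescence (ex 410, em 470 nm). Purified N-His BIO3-BIO1 variants (50 nM, E. coli-expressed) saw herbicide 10 min at 20 °C in pH 8.6 EPPS buffer, then 20 μM KAPA plus 100 μM spermidine for 75 min at 20 °C.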

[3] = molecular target: T2, Arabidopsis thaliana BIO3-BIO1 (BioDA) mutants (Arabidopsis thaliana, UniProt B0F481, A507S); assay: as above; format: biochemical; conditions: read-out: percentage inhibition
T2 construct: with the predicted N-terminal mitochondrial transit peptide removed; 6xHis-tag (N); thrombin cleavage site (N); made in house; host or cells: E. coli BL21 (DE3) bioA
T2 sequence (B0F481 23-833 A507S): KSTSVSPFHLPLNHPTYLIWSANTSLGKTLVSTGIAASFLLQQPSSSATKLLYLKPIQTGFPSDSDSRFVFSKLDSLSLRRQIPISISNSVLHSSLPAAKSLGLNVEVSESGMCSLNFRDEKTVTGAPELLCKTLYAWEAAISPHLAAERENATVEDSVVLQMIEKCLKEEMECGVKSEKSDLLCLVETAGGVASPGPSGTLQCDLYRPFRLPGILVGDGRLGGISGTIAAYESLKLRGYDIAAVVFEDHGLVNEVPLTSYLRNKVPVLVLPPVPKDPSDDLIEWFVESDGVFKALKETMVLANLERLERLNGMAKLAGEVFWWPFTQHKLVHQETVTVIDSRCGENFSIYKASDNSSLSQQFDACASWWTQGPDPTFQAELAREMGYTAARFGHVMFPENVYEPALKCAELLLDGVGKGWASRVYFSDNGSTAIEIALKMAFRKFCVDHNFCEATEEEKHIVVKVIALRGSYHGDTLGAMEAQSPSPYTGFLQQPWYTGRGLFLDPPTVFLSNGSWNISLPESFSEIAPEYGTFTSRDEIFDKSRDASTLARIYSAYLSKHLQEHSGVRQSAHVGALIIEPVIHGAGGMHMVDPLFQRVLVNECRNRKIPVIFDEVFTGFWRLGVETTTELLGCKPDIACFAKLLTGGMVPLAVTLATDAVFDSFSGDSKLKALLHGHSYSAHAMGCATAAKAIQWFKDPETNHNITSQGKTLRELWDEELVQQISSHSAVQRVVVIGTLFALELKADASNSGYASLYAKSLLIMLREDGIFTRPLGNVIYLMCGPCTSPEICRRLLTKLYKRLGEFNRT
How it was run: as §1

[4] = molecular target: T3, Arabidopsis thaliana BIO3-BIO1 (BioDA) mutants (Arabidopsis thaliana, UniProt B0F481, A507K); assay: as above; format: biochemical; conditions: read-out: percentage inhibition
T3 construct: with the predicted N-terminal mitochondrial transit peptide removed; 6xHis-tag (N); thrombin cleavage site (N); made in house; host or cells: E. coli BL21 (DE3) bioA
T3 sequence (B0F481 23-833 A507K): as the sequence (B0F481 23-833 A507S) above, with S485K counted along it
How it was run: as §1

[5] = molecular target: T4, Arabidopsis thaliana BIO3-BIO1 (BioDA) mutants (Arabidopsis thaliana, UniProt B0F481, Q506A); assay: as above; format: biochemical; conditions: read-out: percentage inhibition
T4 construct: with the predicted N-terminal mitochondrial transit peptide removed; 6xHis-tag (N); thrombin cleavage site (N); made in house; host or cells: E. coli BL21 (DE3) bioA
T4 sequence (B0F481 23-833 Q506A): as the sequence (B0F481 23-833 A507S) above, with Q484A, S485A counted along it
How it was run: as §1

SMILES	percentage of damage ([1]; 7 DAT) [%]	percentage of damage ([1]; 14 DAT) [%]	percentage of damage ([1]; 21 DAT) [%]	inhibition at 1 µM [2] [%]	inhibition at 1 µM [3] [%]	inhibition at 1 µM [4] [%]	inhibition at 1 µM [5] [%]
CCn1c(Cn2ccc(C(F)(F)F)n2)cc(=O)c(C(=O)O)c1-c1ccc(Cl)c(Cl)c1 [Compound L, 2-(3,4-dichlorophenyl)-1-ethyl-4-oxo-6-[[3-(trifluoromethyl)pyrazol-1-yl]methyl]pyridine-3-carboxylic acid]	0	0	0				
CCOC(=O)c1nn(-c2ccc3c(c2)OC(F)(F)C(F)(F)O3)c2cccc(C(C)=O)c2c1=O [Compound A, ethyl 5-acetyl-4-oxo-1-(2,2,3,3-tetrafluoro-1,4-benzodioxin-6-yl)cinnoline-3-carboxylate]	0	0	0	22	63	81	0
